Results taken from patent publication US20220056043A1, “NITROGEN-CONTAINING FUSED CYCLIC COMPOUND, PREPARATION METHOD THEREFOR AND USE THEREOF” (SICHUAN KELUN-BIOTECH BIOPHARMACEUTICAL CO., LTD., priority 2019, published 2022).

How the values were obtained:
[1] = target: T1, hNLRP3 inflammasome (Homo sapiens, UniProt Q96P20); assay: Agonistic effect on the expression of IL-1β in THP-1 cells after PMA-induced differentiation (HTRF); type: cell-based; settings: IL-1β level, PMA-differentiated THP-1 cells, 6 hours
T1 construct: endogenous in cells; host or cells: THP-1 cells, PMA-differentiated
T1 sequence (Q96P20 whole entry): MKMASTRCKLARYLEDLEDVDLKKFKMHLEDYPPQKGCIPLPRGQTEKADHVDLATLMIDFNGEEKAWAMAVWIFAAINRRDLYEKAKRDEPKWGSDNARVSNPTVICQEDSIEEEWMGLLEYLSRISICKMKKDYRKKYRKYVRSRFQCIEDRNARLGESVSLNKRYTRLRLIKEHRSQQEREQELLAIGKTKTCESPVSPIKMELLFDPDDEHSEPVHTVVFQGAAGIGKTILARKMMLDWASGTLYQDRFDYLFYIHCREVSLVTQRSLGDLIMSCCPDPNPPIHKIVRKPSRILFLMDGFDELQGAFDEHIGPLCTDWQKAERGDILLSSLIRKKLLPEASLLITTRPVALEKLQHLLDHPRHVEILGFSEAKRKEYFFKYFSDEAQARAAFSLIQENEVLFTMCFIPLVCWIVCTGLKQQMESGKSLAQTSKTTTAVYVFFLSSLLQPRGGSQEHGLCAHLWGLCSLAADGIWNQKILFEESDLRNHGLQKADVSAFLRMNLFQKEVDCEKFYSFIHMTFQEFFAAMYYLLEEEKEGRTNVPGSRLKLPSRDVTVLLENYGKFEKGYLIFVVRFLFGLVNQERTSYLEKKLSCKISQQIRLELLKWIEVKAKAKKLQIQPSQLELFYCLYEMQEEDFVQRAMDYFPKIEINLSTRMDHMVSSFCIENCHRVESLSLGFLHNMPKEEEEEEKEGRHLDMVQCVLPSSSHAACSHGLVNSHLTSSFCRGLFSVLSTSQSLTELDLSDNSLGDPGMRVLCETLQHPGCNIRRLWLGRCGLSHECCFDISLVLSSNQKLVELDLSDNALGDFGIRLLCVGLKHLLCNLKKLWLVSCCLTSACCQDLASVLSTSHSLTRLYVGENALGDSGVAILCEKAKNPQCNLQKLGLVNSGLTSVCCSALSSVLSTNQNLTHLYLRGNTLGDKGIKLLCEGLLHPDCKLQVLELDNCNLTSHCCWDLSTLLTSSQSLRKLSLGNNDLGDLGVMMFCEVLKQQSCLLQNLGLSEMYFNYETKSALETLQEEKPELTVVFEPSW
Outline: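 THP-1 cells differentiated with 1 μM PMA for 24 h, then replated at 1×10^5 cells/well in RPMI 1640 with 2% FBS. Compounds added for 6 h at 37 °C, 5% CO2. Supernatant IL-1β measured by HTRF; EC50 from four-parameter variable-slope fit.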

[2] = target: T2, hTLR8 (Homo sapiens, UniProt Q9NR97); assay: Agonistic effect on hTLR8, HEK-Blue hTLR8 cells, alkaline phosphatase secretion; type: cell-based; settings: 16 hours
T2 construct: host or cells: HEK-Blue hTLR8 cells
T2 sequence (Q9NR97 27-1041): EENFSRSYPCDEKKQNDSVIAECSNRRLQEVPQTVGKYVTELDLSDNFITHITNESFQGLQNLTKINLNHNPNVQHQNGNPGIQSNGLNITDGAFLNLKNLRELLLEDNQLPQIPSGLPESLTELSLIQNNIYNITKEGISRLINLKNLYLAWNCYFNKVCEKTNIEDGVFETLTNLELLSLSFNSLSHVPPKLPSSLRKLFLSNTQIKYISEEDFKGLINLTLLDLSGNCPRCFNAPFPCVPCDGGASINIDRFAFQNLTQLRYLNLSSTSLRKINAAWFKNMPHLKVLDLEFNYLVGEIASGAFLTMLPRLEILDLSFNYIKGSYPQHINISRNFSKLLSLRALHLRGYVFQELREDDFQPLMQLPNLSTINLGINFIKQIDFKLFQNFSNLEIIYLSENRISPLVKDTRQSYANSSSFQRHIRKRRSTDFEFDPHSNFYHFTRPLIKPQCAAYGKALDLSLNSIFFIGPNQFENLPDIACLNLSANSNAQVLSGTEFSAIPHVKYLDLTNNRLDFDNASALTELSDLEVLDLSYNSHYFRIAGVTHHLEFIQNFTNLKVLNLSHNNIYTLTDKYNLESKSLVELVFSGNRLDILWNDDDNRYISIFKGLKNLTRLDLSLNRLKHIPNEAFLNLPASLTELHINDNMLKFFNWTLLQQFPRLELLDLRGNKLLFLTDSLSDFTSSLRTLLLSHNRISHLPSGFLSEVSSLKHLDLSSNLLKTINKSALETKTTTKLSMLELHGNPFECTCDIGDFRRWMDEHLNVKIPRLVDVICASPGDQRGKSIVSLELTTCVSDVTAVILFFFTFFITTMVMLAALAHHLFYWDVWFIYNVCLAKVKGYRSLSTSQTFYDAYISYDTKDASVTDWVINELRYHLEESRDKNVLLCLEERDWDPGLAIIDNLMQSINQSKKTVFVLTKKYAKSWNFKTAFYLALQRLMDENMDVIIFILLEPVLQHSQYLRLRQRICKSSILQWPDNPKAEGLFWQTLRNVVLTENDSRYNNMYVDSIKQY
Outline: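 HEK-Blue hTLR8 reporter cells were treated with compound (diluted from 10 mM DMSO stock) for 16 h at 37 °C in DMEM/10% FBS. Secreted alkaline phosphatase in supernatant was detected with QUANTI-Blue after 3 h at 37 °C, read at OD620. EC50 came from a four-parameter variable-slope fit.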

SMILES	EC50 [1] [µM]	EC50 [2] [nM]
Nc1cc(NC(CCO)c2ccccc2)c2sc(-c3ccn[nH]3)cc2n1 (stereo not shown) [Compound 123, 3-((5-amino-2-(1H-pyrazol-5-yl)thieno[3,2-b]pyridin-7-yl)amino)-3-phenyl-1-propanol]	0.1	> 100000
C[C@@H](CCO)Nc1cc(N)nc2cc(-c3ccn[nH]3)sc12 [Compound 125, (S)-3-((5-amino-2-(1H-pyrazol-5-yl)thieno[3,2-b]pyridin-7-yl)amino)butanol]	0.03	> 100000
CN(CCCO)c1cc(N)nc2cc(-c3ccn[nH]3)sc12 [Compound 127, 3-((5-amino-2-(1H-pyrazol-5-yl)thieno[3,2-b]pyridin-7-yl)(methyl)amino)-1-propanol]	0.11	> 100000
Nc1cc(N[C@@H]2CC[C@@H](O)C2)c2sc(-c3ccn[nH]3)cc2n1 [Compound 30, (1R,3R)-3-((5-amino-2-(1H-pyrazol-5-yl)thieno[3,2-b]pyridin-7-yl)amino)cyclopentanol]	0.03	> 100000
CC(C)(O)CNc1cc(N)nc2cc(-c3ccn[nH]3)sc12 [Compound 28, (1-(5-amino-2-(1H-pyrazol-5-yl)thieno[3,2-b]pyridin-7-yl)amino)-2-methyl-2-propanol]	0.54	> 100000
C[C@]1(O)C[C@@H](Nc2cc(N)nc3cc(-c4ccn[nH]4)sc23)C1 [Compound 129, (1s,3s)-3-((5-amino-2-(1H-pyrazol-5-yl)thieno[3,2-b]pyridin-7-yl)amino)-1-methylcyclobutanol]	0.03	> 100000
Cc1cccnc1CNc1cc(N)nc2cc(-c3ccn[nH]3)sc12 [Compound 134, N^7-((3-methylpyridin-2-yl)methyl)-2-(1H-pyrazol-5-yl)thieno[3,2-b]pyridine-5,7-diamine]	0.03	> 100000
C[C@@H]1CN(CCNc2cc(N)nc3cc(-c4ccn[nH]4)sc23)C[C@@H](C)O1 [Compound 124, N^7-(2-((2R,6R)-2,6-dimethylmorpholino)ethyl)-2-(1H-pyrazol-5-yl)thieno[3,2-b]pyridine-5,7-diamine]	0.05	> 100000
Nc1cc(NCC2CCC2)c2sc(-c3ccn[nH]3)cc2n1 [Compound 126, N^7-(cyclobutylmethyl)-2-(1H-pyrazol-5-yl)thieno[3,2-b]pyridine-5,7-diamine]	0.35	> 100000
COC[C@@H](C)Nc1cc(N)nc2cc(-c3ccn[nH]3)sc12 [Compound 133, (R)—N^7-(1-methoxyprop-2-yl)-2-(1H-pyrazol-5-yl)thieno[3,2-b]pyridine-5,7-diamine]	0.58	> 100000
Nc1cc(N[C@H]2[C@@H]3CNC[C@@H]32)c2sc(-c3ccn[nH]3)cc2n1 [Compound 142, N^7-((1R,5S,6S)-3-azabicyclo[3.1.0]hex-6-yl)-2-(1H-pyrazol-5-yl)thieno[3,2-b]pyridin-5,7-diamine]	0.14	> 100000
C[C@H](Nc1cc(N)nc2cc(-c3ccn[nH]3)sc12)c1cccc(C(F)(F)F)c1 [Compound 131, (S)-2-(1H-pyrazol-5-yl)-N^7-(1-(3-(trifluoromethyl)phenyl)ethyl)thieno[3,2-b]pyridine-5,7-diamine]	0.06	> 100000
C[C@H]1CC[C@H](Nc2cc(N)nc3cc(-c4ccn[nH]4)sc23)CC1 [Compound 128, N^7-((1R,4R)-4-methylcyclohexyl)-2-(1H-pyrazol-5-yl)thieno[3,2-b]pyridine-5,7-diamine]	0.11	> 100000
CC[C@@H](CO)Nc1cc(N)nc2cc(-c3ccn[nH]3)sc12 [Compound 132, (S)-2-((5-amino-2-(1H-pyrazol-5-yl)thieno[3,2-b]pyridin-7-yl)amino)-1-butanol]	3.48	> 100000
C[C@@H](O)CNc1cc(N)nc2cc(-c3ccn[nH]3)sc12 [Compound 29]	0.16	> 100000

Now from value to compound:

EC50 [1] [µM]	EC50 [2] [nM]	SMILES
0.31	> 100000	CCC(=O)N(CC)CCNc1cc(N)nc2cc(-c3ccn[nH]3)sc12 [Compound 145, N-(2-((5-amino-2-(1H-pyrazol-5-yl)thieno[3,2-b]pyridin-7-yl)amino)ethyl)-N-ethylpropionamide]
0.95	> 100000	CNC(=O)CNc1cc(N)nc2cc(-c3ccn[nH]3)sc12 [Compound 137, 2-((5-amino-2-(1H-pyrazol-5-yl)thieno[3,2-b]pyridin-7-yl)amino)-N-methylacetamide]
0.03	> 100000	CC(C)CNc1cc(N)nc2cc(-c3ccn[nH]3)sc12 [Compound 141, N^7-isobutyl-2-(1H-pyrazol-5-yl)thieno[3,2-b]pyridin-5,7-diamine]
0.07	> 100000	CN(CCO)c1cc(N)nc2cc(-c3ccn[nH]3)sc12 [Compound 139, 2-((5-amino-2-(1H-pyrazol-5-yl)thieno[3,2-b]pyridin-7-yl)(methyl)amino)ethanol]
0.08	> 100000	Nc1cc(NC2CCC(F)(F)CC2)c2sc(-c3ccn[nH]3)cc2n1 [Compound 143, N^7-(4,4-difluorocyclohexyl)-2-(1H-pyrazol-5-yl)thieno[3,2-b]pyridin-5,7-diamine]
0.008	> 100000	C[C@@H]1CN(c2cc(N)nc3cc(-c4ccn[nH]4)sc23)C[C@@H](C)O1 [Compound 148, 7-((2R,6R)-2,6-dimethylmorpholino)-2-(1H-pyrazol-5-yl)thieno[3,2-b]pyridine-5-amine]
0.04	> 100000	Cc1noc(C)c1CNc1cc(N)nc2cc(-c3ccn[nH]3)sc12 [Compound 149, N^7-((3,5-dimethylisoxazol-4-yl)methyl)-2-(1H-pyrazol-5-yl)thieno[3,2-b]pyridine-5,7-diamine]
0.38	> 100000	CC(C)C[C@H](CO)Nc1cc(N)nc2cc(-c3ccn[nH]3)sc12 [Compound 144, (R)-2-((5-amino-2-(1H-pyrazol-5-yl)thieno[3,2-b]pyridin-7-yl)amino)-4-methyl-1-pentanol]
0.03	> 100000	Nc1cc(N[C@H]2CC[C@H](O)CC2)c2sc(-c3ccn[nH]3)cc2n1 [Compound 147, (1R,4R)-4-((5-amino-2-(1H-pyrazol-5-yl)thieno[3,2-b]pyridin-7-yl)amino)cyclohexanol]
0.5	> 100000	CCN(CCNc1cc(N)nc2cc(-c3ccn[nH]3)sc12)C(=O)Cc1cccc(C)c1 [Compound 140, N-(2-((5-amino-2-(1H-pyrazol-5-yl)thieno[3,2-b]pyridin-7-yl)amino)ethyl)-N-ethyl-2-(m-tolyl)acetamide]
0.29	> 100000	CCN(CCNc1cc(N)nc2cc(-c3ccn[nH]3)sc12)C(=O)C1CC1 [Compound 146, N-(2-((5-amino-2-(1H-pyrazol-5-yl)thieno[3,2-b]pyridin-7-yl)amino)ethyl)-N-ethylcyclopropyl formamide]
2.75	> 100000	COCCNc1cc(N)nc2c(C)c(-c3cc[nH]n3)sc12 [Compound 152]
0.2	> 100000	Nc1cc(NCC(=O)NC2CC2)c2sc(-c3ccn[nH]3)cc2n1 [Compound 138, 2-((5-amino-2-(1H-pyrazol-5-yl)thieno[3,2-b]pyridin-7-yl)amino)-N-cyclopropylacetamide]
0.16	> 100000	Nc1cc(NCCCN2CCCC2=O)c2sc(-c3ccn[nH]3)cc2n1 [Compound 150]
0.32	> 100000	Nc1cc(NCCN2CCCC2=O)c2sc(-c3ccn[nH]3)cc2n1 [Compound 135, 1-(2-((5-amino-2-(1H-pyrazol-5-yl)thieno[3,2-b]pyridin-7-yl)amino)ethyl)pyrrolidin-2-one]
3.66	> 100000	Cc1c(-c2cc[nH]n2)sc2c(NCC(C)(C)CO)cc(N)nc12 [Compound 151]
0.05	> 100000	Nc1cc(NCC(CO)CO)c2sc(-c3ccn[nH]3)cc2n1 [Compound 136]
